Measured values published in patent US10040781B2, “Tank-binding kinase inhibitor compounds” (Gilead Sciences, Inc., priority 2014, dated 2018).
Like-named read-outs stand apart in the source and are kept apart here.

Columns and labels:
IKKε = IKKε (Homo sapiens (Human), UniProt Q14164); test: IKKε TR-FRET enzymatic assay; assay type: biochemical
TBK1 = TBK1 (Homo sapiens (Human), UniProt Q9UHD2); test: TBK1 TR-FRET enzymatic assay;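 further: phosphorylation of a biotinylated Ser/Thr peptide by purified full-length recombinant TBK1, read by TR-FRET after 240 min at 25 °C, IC50 is the geometric mean of at least four runs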
TBK1, sequence (Q9UHD2 whole entry): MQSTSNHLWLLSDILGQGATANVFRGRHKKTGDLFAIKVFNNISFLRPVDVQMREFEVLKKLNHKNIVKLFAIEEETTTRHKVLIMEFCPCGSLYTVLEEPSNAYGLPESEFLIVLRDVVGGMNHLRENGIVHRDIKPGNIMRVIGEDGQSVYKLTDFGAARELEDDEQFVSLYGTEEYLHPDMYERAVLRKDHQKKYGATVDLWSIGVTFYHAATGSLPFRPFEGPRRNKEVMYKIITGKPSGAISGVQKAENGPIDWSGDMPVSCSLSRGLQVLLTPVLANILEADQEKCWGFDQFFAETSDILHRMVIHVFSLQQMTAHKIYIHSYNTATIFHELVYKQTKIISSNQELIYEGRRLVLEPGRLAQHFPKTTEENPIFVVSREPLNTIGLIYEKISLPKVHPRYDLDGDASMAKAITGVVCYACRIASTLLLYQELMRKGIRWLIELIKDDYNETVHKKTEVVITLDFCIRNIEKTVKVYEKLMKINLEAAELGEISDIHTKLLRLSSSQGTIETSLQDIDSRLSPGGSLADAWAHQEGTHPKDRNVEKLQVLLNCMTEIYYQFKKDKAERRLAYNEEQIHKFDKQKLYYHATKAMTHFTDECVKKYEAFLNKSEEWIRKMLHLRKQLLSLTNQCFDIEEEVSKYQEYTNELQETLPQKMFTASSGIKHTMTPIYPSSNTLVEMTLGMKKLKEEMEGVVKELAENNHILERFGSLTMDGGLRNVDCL

[1] = TR-FRET, 2×Km ATP, geometric mean of minimum four determinations, read-out: IKKe IC50

IKKε, sequence (Q14164 whole entry): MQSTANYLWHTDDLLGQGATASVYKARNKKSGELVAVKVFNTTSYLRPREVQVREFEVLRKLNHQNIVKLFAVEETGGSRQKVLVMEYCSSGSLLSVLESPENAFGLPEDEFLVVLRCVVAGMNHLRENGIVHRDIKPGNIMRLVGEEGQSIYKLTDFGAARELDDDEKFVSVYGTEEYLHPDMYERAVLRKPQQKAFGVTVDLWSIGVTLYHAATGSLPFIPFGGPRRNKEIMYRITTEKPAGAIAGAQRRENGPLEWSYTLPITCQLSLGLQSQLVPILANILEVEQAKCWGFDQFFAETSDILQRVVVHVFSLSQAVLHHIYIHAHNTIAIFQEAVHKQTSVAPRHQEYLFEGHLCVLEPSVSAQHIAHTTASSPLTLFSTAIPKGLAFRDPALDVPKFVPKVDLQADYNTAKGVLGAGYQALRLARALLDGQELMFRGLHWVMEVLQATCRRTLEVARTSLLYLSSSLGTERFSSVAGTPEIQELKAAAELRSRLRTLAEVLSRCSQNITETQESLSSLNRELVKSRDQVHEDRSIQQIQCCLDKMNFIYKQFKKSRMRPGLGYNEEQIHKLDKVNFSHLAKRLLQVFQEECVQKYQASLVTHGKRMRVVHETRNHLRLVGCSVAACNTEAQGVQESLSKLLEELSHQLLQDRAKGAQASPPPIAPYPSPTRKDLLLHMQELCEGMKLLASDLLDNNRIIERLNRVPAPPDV

| SMILES | IC50 (IKKε; [1]) | IC50 (TBK1) | IC50 (IKKε; read-out: IKKe IC50) | IC50 (IKKε; IKKe IC50) | IC50 (TBK1; TBK1 IC50) |
| --- | --- | --- | --- | --- | --- |
| N#Cc1cc(-c2ncnc(Nc3ccc(N4CCN5CCOC[C@H]5C4)cc3)n2)ccc1O[C@H]1CCN(C(=O)[C@@H]2CCC(=O)N2)C[C@H]1F [Example 466, 2-(((3R,4S)-3-fluoro-1-((S)-5-oxopyrrolidine-2-carbonyl)piperidin-4-yl)oxy)-5-(4-((4-((R)-hexahydropyrazino[2,1-c][1,4]oxazin-8(1H)-yl)phenyl)amino)-1,3,5-triazin-2-yl)benzonitrile] | 5 nM | 4 nM | – | – | – |
| N#Cc1cc(-c2ncnc(Nc3ccc(N4CCN(C5COC5)CC4)cc3)n2)ccc1OC1CC[S+]([O-])CC1 (single isomer, unassigned) [Example 25, 5-(4-((4-(4-(oxetan-3-yl)piperazin-1-yl)phenyl)amino)-1,3,5-triazin-2-yl)-2-((1-oxidotetrahydro-2H-thiopyran-4-yl)oxy)benzonitrile] | – | – | – | 73 nM | 21 nM |
| C[C@H]1CN(C2COC2)CCN1c1ccc(Nc2ncnc(-c3ccc(O[C@H]4CCN(C(=O)c5cnn[nH]5)CC4(F)F)c(C#N)c3)n2)cc1 [Example 258, 2-(((S)-3,3-difluoro-1-(1H-1,2,3-triazole-5-carbonyl)piperidin-4-yl)oxy)-5-(4-((4-((S)-2-methyl-4-(oxetan-3-yl)piperazin-1-yl)phenyl)amino)-1,3,5-triazin-2-yl)benzonitrile] | – | 3 nM | 1 nM | – | – |
| N#Cc1cc(-c2ncnc(Nc3ccc(N4CCOCC4)cc3)n2)ccc1NC(=O)[C@@H]1CCCN1 [Example 37, (S)—N-(2-cyano-4-(4-((4-morpholinophenyl)amino)-1,3,5-triazin-2-yl)phenyl)pyrrolidine-2-carboxamide] | – | 203 nM | 305 nM | – | – |
| C[C@H](O)C(=O)N1CC[C@H](Oc2ccc(-c3ncnc(Nc4ccc(N5CCC(C)(O)CC5)cc4)n3)cc2C#N)[C@H](F)C1 [Example 355, 2-(((3R,4S)-3-fluoro-1-((S)-2-hydroxypropanoyl)piperidin-4-yl)oxy)-5-(4-((4-(4-hydroxy-4-methylpiperidin-1-yl)phenyl)amino)-1,3,5-triazin-2-yl)benzonitrile] | – | 4 nM | 2 nM | – | – |
| N#Cc1cc(-c2ncnc(Nc3ccc(N4CCN(C5COC5)CC4)c(F)c3)n2)ccc1O[C@H]1CCN(C(=O)[C@@H](O)CO)C[C@H]1F [Example 409, 2-(((3R,4S)-1-((S)-2,3-dihydroxypropanoyl)-3-fluoropiperidin-4-yl)oxy)-5-(4-((3-fluoro-4-(4-(oxetan-3-yl)piperazin-1-yl)phenyl)amino)-1,3,5-triazin-2-yl)benzonitrile] | 1 nM | 2 nM | – | – | – |
| N#Cc1cc(-c2ncnc(Nc3ccc(N4CCN(C5COC5)CC4)cc3)n2)ccc1O[C@H]1CCN(C(=O)c2cnc(N)cn2)C[C@H]1F [Example 341, 2-(((3R,4S)-1-(5-aminopyrazine-2-carbonyl)-3-fluoropiperidin-4-yl)oxy)-5-(4-((4-(4-(oxetan-3-yl)piperazin-1-yl)phenyl)amino)-1,3,5-triazin-2-yl)benzonitrile] | – | 2 nM | 1 nM | – | – |
| COc1cc(Nc2ncnc(-c3ccc(O[C@H]4CCN(C(=O)[C@@H](O)CO)CC4(F)F)c(C#N)c3)n2)ccc1N1CCN(C2COC2)CC1 [Example 577, 2-(((S)-1-((S)-2,3-dihydroxypropanoyl)-3,3-difluoropiperidin-4-yl)oxy)-5-(4-((3-methoxy-4-(4-(oxetan-3-yl)piperazin-1-yl)phenyl)amino)-1,3,5-triazin-2-yl)benzonitrile] | 1 nM | 2 nM | – | – | – |
| COc1cc(Nc2ncnc(-c3ccc(OC4CCOCC4)c(C#N)c3)n2)cc(F)c1N1CCN(C2COC2)CC1 [Example 61, 5-(4-((3-fluoro-5-methoxy-4-(4-(oxetan-3-yl)piperazin-1-yl)phenyl)amino)-1,3,5-triazin-2-yl)-2-((tetrahydro-2H-pyran-4-yl)oxy)benzonitrile] | – | 2 nM | 7 nM | – | – |
| N#Cc1cc(-c2ncnc(Nc3ccc(N4CCN(C5COC5)CC4)cc3)n2)ccc1OC1CC[S+]([O-])CC1 (single isomer, unassigned) [Example 26, 5-(4-((4-(4-(oxetan-3-yl)piperazin-1-yl)phenyl)amino)-1,3,5-triazin-2-yl)-2-((1-oxidotetrahydro-2H-thiopyran-4-yl)oxy)benzonitrile] | – | – | – | 23 nM | 6 nM |
| N#Cc1cc(-c2ncnc(Nc3ccc(N4CCNCC4)c(F)c3)n2)ccc1O[C@H]1CCOC[C@H]1F [Example 298, 5-(4-((3-fluoro-4-(piperazin-1-yl)phenyl)amino)-1,3,5-triazin-2-yl)-2-(((3R,4S)-3-fluorotetrahydro-2H-pyran-4-yl)oxy)benzonitrile] | – | 4 nM | 1 nM | – | – |
| N#Cc1cc(-c2ncnc(Nc3cnn(C(F)F)c3)n2)ccc1O[C@H]1CCN(C(=O)[C@@H](O)CO)C[C@H]1F [Example 456] | 7 nM | 4 nM | – | – | – |

Now from value to molecule, other results behind:

| IC50 (IKKε; [1]) | IC50 (TBK1) | IC50 (IKKε; read-out: IKKe IC50) | SMILES | IC50 (IKKε; IKKe IC50) | IC50 (TBK1; TBK1 IC50) |
| --- | --- | --- | --- | --- | --- |
| – | 5 nM | 32 nM | N#Cc1cc(-c2ncnc(Nc3ccc(N4CCN(C5COC5)CC4)cc3)n2)ccc1O[C@@H]1CCOC1 [Example 29, (R)-5-(4-((4-(4-(oxetan-3-yl)piperazin-1-yl)phenyl)amino)-1,3,5-triazin-2-yl)-2-((tetrahydrofuran-3-yl)oxy)benzonitrile] | – | – |
| – | 5 nM | 19 nM | N#Cc1cc(-c2ncnc(Nc3ccc(N4CCN(C5COC5)CC4)cc3)n2)ccc1OC1CCN(C(=O)c2ncc[nH]2)CC1 [Example 189, 2-((1-(1H-imidazole-2-carbonyl)piperidin-4-yl)oxy)-5-(4-((4-(4-(oxetan-3-yl)piperazin-1-yl)phenyl)amino)-1,3,5-triazin-2-yl)benzonitrile] | – | – |
| – | 23 nM | 38 nM | CS(=O)(=O)OC1CN(c2ccc(-c3ncnc(Nc4ccc(N5CCN(C6COC6)CC5)cc4)n3)cc2C#N)C1 [Example 276, 1-(2-cyano-4-(4-((4-(4-(oxetan-3-yl)piperazin-1-yl)phenyl)amino)-1,3,5-triazin-2-yl)phenyl)azetidin-3-yl methanesulfonate] | – | – |
| – | 49 nM | 213 nM | CN1CC2(CCN(c3ccc(-c4ncnc(Nc5ccc(N6CCN(C7COC7)CC6)cc5)n4)cc3C#N)CC2)C1 [Example 209, 2-(2-methyl-2,7-diazaspiro[3.5]nonan-7-yl)-5-(4-((4-(4-(oxetan-3-yl)piperazin-1-yl)phenyl)amino)-1,3,5-triazin-2-yl)benzonitrile] | – | – |
| ≥ 1000 nM | 533 nM | – | C[C@H]1C[C@H](Oc2ccc(-c3ncnc(Nc4ccc(N5CCN(C6COC6)CC5)cc4)n3)cc2C#N)[C@H](F)CN1C(=O)[C@H]1CCC(=O)N1 [Example 411, 2-(((2S,4S,5R)-5-fluoro-2-methyl-1-((R)-5-oxopyrrolidine-2-carbonyl)piperidin-4-yl)oxy)-5-(4-((4-(4-(oxetan-3-yl)piperazin-1-yl)phenyl)amino)-1,3,5-triazin-2-yl)benzonitrile] | – | – |
| 2 nM | 4 nM | – | N#Cc1cc(-c2ncnc(Nc3ccc(N4CCN(C5COC5)CC4)cc3)n2)ccc1O[C@H]1CCN(C(=O)c2nc(=O)[nH][nH]2)C[C@H]1F [Example 437, 2-(((3R,4S)-3-fluoro-1-(5-oxo-2,5-dihydro-1H-1,2,4-triazole-3-carbonyl)piperidin-4-yl)oxy)-5-(4-((4-(4-(oxetan-3-yl)piperazin-1-yl)phenyl)amino)-1,3,5-triazin-2-yl)benzonitrile] | – | – |
| – | 37 nM | 129 nM | N#Cc1cc(-c2ncnc(Nc3ccc(N4CCN(C5COC5)CC4)cc3)n2)ccc1O[C@H]1CCN(C(=O)Cn2cnnc2)C[C@H]1F [Example 377, 2-(((3R,4S)-1-(2-(4H-1,2,4-triazol-4-yl)acetyl)-3-fluoropiperidin-4-yl)oxy)-5-(4-((4-(4-(oxetan-3-yl)piperazin-1-yl)phenyl)amino)-1,3,5-triazin-2-yl)benzonitrile] | – | – |
| 2 nM | 3 nM | – | Cc1cc(Nc2ncnc(-c3ccc(O[C@@H]4CCC(=O)NC4)c(C#N)c3)n2)ccc1N1CCN(C2COC2)CC1 [Example 532, (R)-5-(4-((3-methyl-4-(4-(oxetan-3-yl)piperazin-1-yl)phenyl)amino)-1,3,5-triazin-2-yl)-2-((6-oxopiperidin-3-yl)oxy)benzonitrile] | – | – |
| – | 3 nM | 2 nM | N#CCC(=O)N1CC[C@H](Oc2ccc(-c3ncnc(Nc4ccc(N5CCN(C6COC6)CC5)cc4)n3)cc2C#N)C(F)(F)C1 [Example 160, (S)-2-((1-(2-cyanoacetyl)-3,3-difluoropiperidin-4-yl)oxy)-5-(4-((4-(4-(oxetan-3-yl)piperazin-1-yl)phenyl)amino)-1,3,5-triazin-2-yl)benzonitrile] | – | – |
| – | 13 nM | 42 nM | N#Cc1cc(-c2ncnc(Nc3ccc(N4CCN(C5COC5)CC4)cc3)n2)ccc1O[C@H]1CCOC1 [Example 216, (S)-5-(4-((4-(4-(oxetan-3-yl)piperazin-1-yl)phenyl)amino)-1,3,5-triazin-2-yl)-2-((tetrahydrofuran-3-yl)oxy)benzonitrile] | – | – |
| – | 10 nM | 12 nM | Cc1nc(C)c(C(=O)N2CC[C@H](Oc3ccc(-c4ncnc(Nc5ccc(N6CCN(C7COC7)CC6)cc5)n4)cc3C#N)[C@H](F)C2)[nH]1 [Example 345, 2-(((3R,4S)-1-(2,4-dimethyl-1H-imidazole-5-carbonyl)-3-fluoropiperidin-4-yl)oxy)-5-(4-((4-(4-(oxetan-3-yl)piperazin-1-yl)phenyl)amino)-1,3,5-triazin-2-yl)benzonitrile] | – | – |
| 124 nM | 64 nM | – | C[C@H]1C[C@H](Oc2ccc(-c3ncnc(Nc4ccc(N5CCN(C6COC6)CC5)cc4)n3)cc2C#N)[C@H](F)CN1C(=O)[C@@H]1CCC(=O)N1 [Example 416, 2-(((2S,4S,5R)-5-fluoro-2-methyl-1-((S)-5-oxopyrrolidine-2-carbonyl)piperidin-4-yl)oxy)-5-(4-((4-(4-(oxetan-3-yl)piperazin-1-yl)phenyl)amino)-1,3,5-triazin-2-yl)benzonitrile] | – | – |
